Literature values, collected in US20060104952A1, “Genomic barrier to viral disease” (priority 2004, published 2006).

Tested on: genes
Conditions: ref 10 (CoQ10 supplementation, human skeletal muscle)

In the case of `COC1=C(OC)C(=O)C(C/C=C(\C)CC/C=C(\C)CC/C=C(\C)CC/C=C(\C)CC/C=C(\C)CC/C=C(\C)CC/C=C(\C)CC/C=C(\C)CC/C=C(\C)CCC=C(C)C)=C(C)C1=O` [coenzyme Q10], the “number of genes whose expression is influenced” value is given as “at least 115 genes”.
